The target in experiment [1] is ts3 SERT (Y110A, I291A, T439S) (Homo sapiens, UniProt P31645, C554A/C580A/C622A/I291A/T439S/Y110A). The experiment can be described thus: [14C]5-HT uptake in transfected HEK293 cells, Michaelis-Menten. It is filed as cell-based.
For another experiment, the target named is ts2 SERT (I291A, T439S) (Homo sapiens, UniProt P31645, C554A/C580A/C622A/I291A/T439S).

The term Km denotes the concentration of substrate that gives half-maximal velocity. Regarding `NCCc1c[nH]c2ccc(O)cc12` [serotonin, 5-hydroxytryptamine], the serotonin transport activity entry in experiment [1] is “No detectable transport activity”. Besides, on ts2 SERT (I291A, T439S), the “Vmax of serotonin transport” value came to 21 ± 5 pmol/min. Moreover, the Km at ts2 SERT (I291A, T439S) (read-out: KM of serotonin transport) is 4.5 ± 0.6 µM.

The values are drawn from publication PMC4898786 (Nature, 2016).
